# In patent US7785587B2, “Therapeutic methods for muscular or neuromuscular disorders” (Wyeth, priority 2003, dated 2010):
# Columns and labels:
# Type in all cases: in vivo, mouse
# IL1β = test: Serum IL1β in mice treated with prednisone; conditions: separate cohort of mice treated with prednisone
# Protocol: (§1) At the end of the study, mice were sacrificed and muscle mass was assessed by dissecting and weighing the gastrocnemius and quadriceps. To confirm biological activity of prednisone, sera from a separate cohort of mice were collected and analyzed for IL6 and IL1β (Ani Lyctics, Inc., Gaithersburg, Md.).
# C57BL/10ScSn-mdx/j mice [1] = test: Total body weight of mdx mice treated 4 weeks with prednisone with or without JA-16 (Example 2); conditions: JA-16 60 mg/kg per week IP, prednisone 2 mg/kg SC 3 times a week
# Protocol: (§2) Male C57BL/10ScSn-mdx/j and C57BL/10 (Jackson Laboratory, Bar Harbor, Me.). Mouse monoclonal anti-GDF-8 antibody JA-16, prednisone (P-9901, Sigma), or vehicle (peanut oil) was injected starting at age 5-7 weeks for 4 weeks. Mice were intraperitoneally (IP) injected with JA-16 at a dose of 60 mg/kg per week (double dosing at first week), or subcutaneously (SC) injected with prednisone at 2 mg/kg, 3 times a week. The body weight and grip strength were monitored before, during and after treatment. Results are shown in Table 3 and Table 4, respectively.
# IL6 = test: Serum IL6 in mice treated with prednisone; conditions: separate cohort of mice treated with prednisone
# Protocol: as §1
# C57BL/10ScSn-mdx/j mice [2] = test: Gastrocnemius and quadriceps weight in mdx mice treated 4 weeks with prednisone with or without JA-16 (Example 2); conditions: end of 4-week study
# Protocol: as §2, with “week.” for “week. The body weight and grip strength were monitored before, during and after treatment. Results are shown in Table 3 and Table 4, respectively.”
# as §1
# C57BL/10ScSn-mdx/j mice [3] = test: Grip strength of mdx mice treated 4 weeks with prednisone with or without JA-16 (Example 2); conditions: JA-16 60 mg/kg per week IP, prednisone 2 mg/kg SC 3 times a week
# Protocol: as §2
smiles,measurement,setting,value
"C[C@]12C=CC(=O)C=C1CC[C@@H]1[C@@H]2C(=O)C[C@@]2(C)[C@H]1CC[C@]2(O)C(=O)CO [Prednisone, prednisone]",IL1β in sera,IL1β,reduced
same,Total body weight (average ± SEM),C57BL/10ScSn-mdx/j mice [1]; week 0 of trial,17.6 ± 1.8 g
same,Total body weight (average ± SEM),C57BL/10ScSn-mdx/j mice [1]; week 1 of trial,20.9 ± 1.8 g
same,Total body weight (average ± SEM),C57BL/10ScSn-mdx/j mice [1]; week 2 of trial,24.2 ± 1.6 g
same,Total body weight (average ± SEM),C57BL/10ScSn-mdx/j mice [1]; week 3 of trial,24.7 ± 1.5 g
same,Total body weight (average ± SEM),C57BL/10ScSn-mdx/j mice [1]; week 4 of trial,25.9 ± 1.6 g
same,IL6 in sera,IL6,reduced
same,"Muscle weight (average ± SEM), Gastroc",C57BL/10ScSn-mdx/j mice [2],0.287 ± 0.023 g
same,"Muscle weight (average ± SEM), Quad",C57BL/10ScSn-mdx/j mice [2],0.417 ± 0.029 g
same,Grip strength (average ± SEM),C57BL/10ScSn-mdx/j mice [3]; week 0 of trial,0.144 ± 0.010 lb
same,Grip strength (average ± SEM),C57BL/10ScSn-mdx/j mice [3]; week 3 of trial,0.177 ± 0.006 lb
same,Grip strength (average ± SEM),C57BL/10ScSn-mdx/j mice [3]; week 4 of trial,0.213 ± 0.011 lb
